Data reported in patent publication US20260123631A1, “NATURAL PORPHIN SALT AND USE THEREOF AS PLANT GROWTH REGULATOR AND PLANT IMMUNITY INDUCER” (NANJING BOSTEC BIOLOGICAL ENGINEERING CO., LTD, priority 2022, published 2026).

How the values were obtained:
[1] = Dilution and pH determination for sample solutions; assay type: physicochemical
Method: Method: 0.2500 g of a sample was accurately weighed and added to a 25 mL volumetric flask, dissolved with purified water, and diluted to a specified scale to prepare a 1.00% (10,000.0 ppm) initial solution. The initial solution was diluted with purified water in different ratios to prepare a series of solutions with a concentration of 1,000.0 ppm to 0.1 ppm. A pH value of each sample was determined three times.

chlorophyllase = test: In vitro chlorophyllase-inhibiting activity test; assay type: biochemical, mung bean; details: substrate chlorophyll 120 ppm, sample 0.3 ppm to 30.0 ppm
Method: A chlorophyllase inhibition rate of a salt sample solution at each concentration was determined, and an IC50 value for a chlorophyllase inhibition activity of a salt sample was calculated.

[2] = Stability of sample solutions in the dark/under light; assay type: physicochemical; details: under light 30,000 lux, salts in water, acidic reference in 30% to 50% ethanol
Method: Determination: An appropriate amount of a salt sample was taken, dissolved with water, and diluted to prepare a test solution with a concentration of about 10 ppm. An acidic reference substance (extremely-insoluble in water) was prepared with a 30% to 50% ethanol aqueous solution into a test solution with a concentration of about 10 ppm.
Each test solution was scanned by an ultraviolet spectrophotometer (at 0 h) for absorbance in a range of 200 nm to 800 nm immediately after being prepared. Then a test solution of each sample was divided into two parts. One part was placed at room temperature of 25° C. in the dark, and the other part was placed under light with a light intensity of 30,000 lux. At 1 h, 2 h, and 3 h, a solution sample was collected and scanned for absorbance respectively.
An absorbance value of a maximum absorption peak at 0 h (starting) of each test solution was set as a relative content of 100%, and a ratio of an absorbance value at each time point to the absorbance value at 0 h was calculated to determine a relative content, %.

[3] = Water solubility of the prepared salts; assay type: physicochemical

Substance: magnesium iron chlorophyllin
- pH ([1]; 0.1 ppm in purified water): (6.94)
- pH ([1]; 1.0 ppm in purified water): (7.11)
- pH ([1]; 10.0 ppm in purified water): (7.40)
- pH ([1]; 20.0 ppm in purified water): (7.65)
- pH ([1]; 30.0 ppm in purified water): (7.78)
- pH ([1]; 100.0 ppm in purified water): (8.18)
- IC50 for chlorophyllase inhibition activity (chlorophyllase): 5.26 ppm
- Relative content ([2]; 1 h): 71.60%
- Relative content ([2]; 2 h): 62.44%
- Relative content ([2]; 3 h): 63.14%

Substance: copper iron chlorophyllin [Example 34]
- solubility in water [3]: slightly soluble
- IC50 for chlorophyllase inhibition activity (chlorophyllase): 5.04 ppm
- Relative content ([2]; 1 h): 72.13%
- Relative content ([2]; 2 h): 68.58%
- Relative content ([2]; 3 h): 65.03%

Substance: sodium chlorin [Example 53]
- solubility in water [3]: easily soluble
- IC50 for chlorophyllase inhibition activity (chlorophyllase): 6.03 ppm
- Relative content ([2]; 1 h): 41.71%
- Relative content ([2]; 2 h): 30.78%
- Relative content ([2]; 3 h): 26.96%

Substance: zinc chlorin [Example 60]
- solubility in water [3]: slightly soluble
- IC50 for chlorophyllase inhibition activity (chlorophyllase): 6.37 ppm
- Relative content ([2]; 1 h): 55.66%
- Relative content ([2]; 2 h): 50.60%
- Relative content ([2]; 3 h): 45.30%

Substance: manganese iron chlorin [Example 27]
- solubility in water [3]: slightly soluble
- IC50 for chlorophyllase inhibition activity (chlorophyllase): 5.20 ppm
- Relative content ([2]; 1 h): 72.13%
- Relative content ([2]; 2 h): 68.26%
- Relative content ([2]; 3 h): 63.87%

Substance: zinc copper chlorophyllin [Example 50]
- solubility in water [3]: slightly soluble
- IC50 for chlorophyllase inhibition activity (chlorophyllase): 14.19 ppm
- Relative content ([2]; 1 h): 69.84%
- Relative content ([2]; 2 h): 65.37%
- Relative content ([2]; 3 h): 60.04%

Substance: copper copper chlorophyllin [Example 51]
- solubility in water [3]: slightly soluble
- IC50 for chlorophyllase inhibition activity (chlorophyllase): 13.70 ppm
- Relative content ([2]; 1 h): 98.85%
- Relative content ([2]; 2 h): 97.47%
- Relative content ([2]; 3 h): 96.78%

Substance: copper iron chlorin [Example 29]
- solubility in water [3]: slightly soluble
- IC50 for chlorophyllase inhibition activity (chlorophyllase): 4.92 ppm
- Relative content ([2]; 1 h): 78.52%
- Relative content ([2]; 2 h): 71.02%
- Relative content ([2]; 3 h): 64.29%

Substance: potassium chlorin [Example 52]
- solubility in water [3]: easily soluble
- IC50 for chlorophyllase inhibition activity (chlorophyllase): 5.98 ppm
- Relative content ([2]; 1 h): 60.05%
- Relative content ([2]; 2 h): 46.81%
- Relative content ([2]; 3 h): 42.89%

Substance: zinc zinc chlorophyllin [Example 41]
- solubility in water [3]: slightly soluble
- IC50 for chlorophyllase inhibition activity (chlorophyllase): 18.77 ppm
- Relative content ([2]; 1 h): 71.62%
- Relative content ([2]; 2 h): 66.31%
- Relative content ([2]; 3 h): 63.93%
